Data: ChEMBL document CHEMBL5236635, “Structure-Based Drug Design and Synthesis of Novel N-Aryl-2,4-bithiazole-2-amine CYP1B1-Selective Inhibitors in Overcoming Taxol Resistance in A549 Cells” (J Med Chem, 2022)
The source made the active and inactive calls. The calls are words filed in the database; no cut-off is given here.

What was measured:
CYP1B1 = molecular target: T1, CYP1B1 (Homo sapiens, UniProt Q16678); test: Inhibition of recombinant human CYP1B1 assessed as inhibition ratio at 100 nM using 7-ethyl-0-resorufin as substrate incubated for 30 mins in presence of NADPH by EROD assay relative to control; details: recombinant human CYP1B1, probe 7-ethyl-0-resorufin
T1 sequence (Q16678 whole entry): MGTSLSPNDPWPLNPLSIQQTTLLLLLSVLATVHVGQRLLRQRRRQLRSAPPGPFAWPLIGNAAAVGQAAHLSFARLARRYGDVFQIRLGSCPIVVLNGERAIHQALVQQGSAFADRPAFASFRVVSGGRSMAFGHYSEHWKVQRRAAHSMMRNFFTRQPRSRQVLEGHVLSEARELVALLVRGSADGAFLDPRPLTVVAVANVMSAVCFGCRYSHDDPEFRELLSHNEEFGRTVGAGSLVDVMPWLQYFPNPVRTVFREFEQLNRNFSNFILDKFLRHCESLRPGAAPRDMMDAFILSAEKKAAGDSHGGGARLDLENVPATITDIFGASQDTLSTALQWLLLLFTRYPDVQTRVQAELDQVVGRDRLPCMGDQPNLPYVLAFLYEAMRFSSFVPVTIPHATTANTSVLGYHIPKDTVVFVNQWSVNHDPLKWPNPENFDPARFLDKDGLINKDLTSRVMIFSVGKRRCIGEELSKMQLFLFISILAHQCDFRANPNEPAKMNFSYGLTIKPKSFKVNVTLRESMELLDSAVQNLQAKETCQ

Cytochrome P450 1B1 [1] = molecular target: T2, Cytochrome P450 1B1 (Homo sapiens, UniProt Q16678); test: Inhibition of recombinant human CYP1B1 using 7-ethyl-0-resorufin as substrate incubated for 30 mins in presence of NADPH by EROD assay
T2 sequence (Q16678 whole entry): T1 sequence (Q16678 whole entry)

Cytochrome P450 1A1 [2] = molecular target: T3, Cytochrome P450 1A1 (Homo sapiens, UniProt P04798); test: Inhibition of recombinant human CYP1A1 using 7-ethyl-0-resorufin as substrate incubated for 30 mins in presence of NADPH by EROD assay
T3 sequence (P04798 whole entry): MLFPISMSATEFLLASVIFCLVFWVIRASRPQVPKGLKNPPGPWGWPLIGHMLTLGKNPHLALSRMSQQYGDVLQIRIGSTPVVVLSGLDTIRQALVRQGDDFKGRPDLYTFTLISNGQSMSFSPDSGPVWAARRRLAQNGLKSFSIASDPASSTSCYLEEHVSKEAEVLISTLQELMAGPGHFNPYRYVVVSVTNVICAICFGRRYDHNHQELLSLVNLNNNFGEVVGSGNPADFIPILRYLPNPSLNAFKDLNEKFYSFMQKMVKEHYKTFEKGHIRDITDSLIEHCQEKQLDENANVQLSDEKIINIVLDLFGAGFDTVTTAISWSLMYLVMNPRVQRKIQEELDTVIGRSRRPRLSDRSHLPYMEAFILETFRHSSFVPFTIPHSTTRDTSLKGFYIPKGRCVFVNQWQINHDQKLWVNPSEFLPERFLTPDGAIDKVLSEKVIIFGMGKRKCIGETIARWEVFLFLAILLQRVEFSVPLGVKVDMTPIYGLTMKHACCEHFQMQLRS

Cytochrome P450 1A2 [3] = molecular target: T4, Cytochrome P450 1A2 (Homo sapiens, UniProt P05177); test: Inhibition of recombinant human CYP1A2 using 7-ethyl-0-resorufin as substrate incubated for 30 mins in presence of NADPH by EROD assay
T4 sequence (P05177 whole entry): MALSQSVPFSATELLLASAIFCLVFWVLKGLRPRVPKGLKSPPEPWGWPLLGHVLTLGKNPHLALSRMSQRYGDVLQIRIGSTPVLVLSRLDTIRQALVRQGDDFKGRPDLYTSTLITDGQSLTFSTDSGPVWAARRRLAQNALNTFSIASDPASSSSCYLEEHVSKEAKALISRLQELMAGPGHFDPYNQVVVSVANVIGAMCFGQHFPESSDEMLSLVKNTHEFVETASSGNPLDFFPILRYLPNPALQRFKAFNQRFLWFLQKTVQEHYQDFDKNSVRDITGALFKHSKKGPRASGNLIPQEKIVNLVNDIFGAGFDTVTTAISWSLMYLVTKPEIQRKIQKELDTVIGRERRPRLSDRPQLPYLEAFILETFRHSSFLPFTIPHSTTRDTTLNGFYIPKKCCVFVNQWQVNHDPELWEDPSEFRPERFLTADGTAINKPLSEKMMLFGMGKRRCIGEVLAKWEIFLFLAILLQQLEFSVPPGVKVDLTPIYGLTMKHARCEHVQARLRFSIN

CYP1A1 versus CYP1B1 = test: Selectivity index, ratio of IC50 for inhibition of recombinant human CYP1A1 to IC50 for inhibition of recombinant human CYP1B1; details: recombinant human CYP1A1 and recombinant human CYP1B1
CYP1A2 versus CYP1B1 = test: Selectivity index, ratio of IC50 for inhibition of recombinant human CYP1A2 to IC50 for inhibition of recombinant human CYP1B1; details: recombinant human CYP1A2 and recombinant human CYP1B1
A549 [4] = test: Inhibition of DMBA induced taxol resistance in human A549 cells; type: functional, cell-based; details: dose 2.5-10 µM
A549/TR = test: Reversal of taxol resistance in human A549/Taxol cells assessed as increase in Rho123 accumulation at 5 uM incubated for 20 mins by multimode plate reader analysis; type: functional, cell-based
Cytochrome P450 1A1 [5] = molecular target: T3, Cytochrome P450 1A1; test: Inhibition of CYP1A1 (unknown origin) assessed as inhibition constant; type: ADME
Cytochrome P450 1A1 [6] = molecular target: T3, Cytochrome P450 1A1; test: Inhibition of CYP1A1 (unknown origin); type: ADME
Cytochrome P450 1B1 [7] = molecular target: T2, Cytochrome P450 1B1; test: Inhibition of CYP1B1 (unknown origin); type: ADME
Cytochrome P450 1A2 [8] = molecular target: T4, Cytochrome P450 1A2; test: Inhibition of CYP1A2 (unknown origin); type: ADME
A549 [9] = test: Antiproliferative activity against human A549 cells assessed as reduction in cell viability at 20 nM by MTT assay; type: functional, cell-based
A549 [10] = test: Antiproliferative activity against human A549 cells assessed as reduction in cell viability at 10 nM by MTT assay; type: functional, cell-based
A549 [11] = test: Antiproliferative activity against human A549 cells assessed as reduction in cell viability at 20 nM in presence of DMBA by MTT assay; type: functional, cell-based
Cytochrome P450 1B1 [12] = molecular target: T2, Cytochrome P450 1B1; test: Inhibition of human CYP1B1; type: ADME

SMILES	inhibition at 0.5 h, 0.1 µM (CYP1B1)	IC50 (Cytochrome P450 1B1 [1])	IC50 (Cytochrome P450 1A1 [2])	IC50 (Cytochrome P450 1A2 [3])	selectivity ratio (CYP1A1 versus CYP1B1)	selectivity ratio (CYP1A2 versus CYP1B1)	other results
Fc1ccccc1-c1csc(-c2csc(Nc3cc(Cl)cc(Cl)c3)n2)n1	–	–	–	–	–	–	inhibition (A549 [4]): Dose-Dependent Effect
COc1ccc(CCN(C)CCCC(C#N)(c2ccc(OC)c(OC)c2)C(C)C)cc1OC (stereo not drawn)	–	–	–	–	–	–	Activity (A549/TR): Active
Clc1cc(Cl)cc(Nc2nc(-c3nccs3)cs2)c1	97.2%	1.76 nM	178 nM	55.7 nM	101	31.5	–
Clc1cc(Nc2nc(-c3nccs3)cs2)cc(Cl)c1Cl	100%	7.45 nM	482 nM	483 nM	64.7	64.8	–
c1csc(-c2csc(Nc3ccc4c(c3)OCO4)n2)n1	97.6%	9 nM	93 nM	78.5 nM	10.3	8.71	–
CCC/C(C=C(C)C)=C\COc1c2occc2c(C)c2ccc(=O)oc12	–	–	–	–	–	–	Ki (Cytochrome P450 1A1 [5]): 7.17 µM
Nc1ccc2[nH]c3c(c2c1)CCn1c-3nc2ccccc2c1=O	–	–	–	–	–	–	IC50 (Cytochrome P450 1A1 [6]): 2580 nM; IC50 (Cytochrome P450 1B1 [7]): 90 nM; IC50 (Cytochrome P450 1A2 [8]): 2580 nM
CC(=O)O[C@H]1C(=O)[C@@]2(C)[C@H]([C@H](OC(=O)c3ccccc3)[C@]3(O)C[C@H](OC(=O)[C@H](O)[C@@H](NC(=O)c4ccccc4)c4ccccc4)C(C)=C1C3(C)C)[C@]1(OC(C)=O)CO[C@@H]1C[C@@H]2O	–	–	–	–	–	–	Activity (A549 [9]): Active; Activity (A549 [10]): Active; Activity (A549 [11]): inactive
COc1cc(Nc2nc(-c3nccs3)cs2)cc(OC)c1	90.7%	0.121 nM	43.9 nM	89 nM	363	733	–
Cc1sc(-c2csc(Nc3cc(Cl)cc(Cl)c3)n2)nc1-c1ccccc1	–	23.3 nM	316 nM	313 nM	13.5	13.4	–
Clc1cc(Cl)cc(Nc2nc(-c3nc(-c4ccccn4)cs3)cs2)c1	–	44.8 nM	916 nM	5390 nM	20.4	120	–
C#CCOc1ccccc1-c1csc(-c2csc(Nc3cc(OC)cc(OC)c3)n2)n1	–	77.6 nM	271 nM	916 nM	3.49	11.8	–
Clc1cc(Cl)cc(Nc2nc(-c3nc(-c4ccncc4)cs3)cs2)c1	–	14.4 nM	1020 nM	2340 nM	70.4	162	–
CCc1sc(-c2csc(Nc3cc(OC)cc(OC)c3)n2)nc1-c1ccccc1	–	10.8 nM	611 nM	5250 nM	56.3	484	–
C#CCOc1ccccc1-c1csc(-c2csc(Nc3cccc(F)c3)n2)n1	–	22.2 nM	125 nM	1040 nM	5.64	46.8	–
Cc1cc(O)c2c(c1)C(=O)c1cc(O)cc(O)c1C2=O [EMODIN]	–	–	–	–	–	–	IC50 (Cytochrome P450 1B1 [12]): 3.73 µM
Cc1sc(-c2csc(Nc3cccc(F)c3)n2)nc1-c1ccncc1	–	73.3 nM	105 nM	230 nM	1.43	3.14	–

Further lines, with some results ahead:

inhibition at 0.5 h, 0.1 µM (CYP1B1)	IC50 (Cytochrome P450 1B1 [1])	IC50 (Cytochrome P450 1A1 [2])	IC50 (Cytochrome P450 1A2 [3])	SMILES	selectivity ratio (CYP1A1 versus CYP1B1)	selectivity ratio (CYP1A2 versus CYP1B1)	other results
92%	9.09 nM	166 nM	141 nM	c1csc(-c2csc(Nc3ccc(Cn4cncn4)cc3)n2)n1	18.2	15.4	–
87.7%	7.88 nM	994 nM	1860 nM	c1csc(-c2csc(Nc3ccc(N4CCOCC4)cc3)n2)n1	126	236	–
90%	6.31 nM	586 nM	119 nM	Clc1ccc(Nc2nc(-c3nccs3)cs2)cc1	92.9	18.8	–
–	155 nM	153 nM	3450 nM	CCc1sc(-c2csc(Nc3ccc(N4CCOCC4)cc3)n2)nc1-c1ccncc1	0.99	22.3	–
–	12.9 nM	47.9 nM	11700 nM	c1ccc(-c2csc(-c3csc(Nc4ccc(N5CCOCC5)cc4)n3)n2)nc1	3.71	905	–
99.7%	4.96 nM	70.4 nM	48.5 nM	c1cn(Cc2ccc(Nc3nc(-c4nccs4)cs3)cc2)cn1	14.1	9.7	–
–	26.8 nM	315 nM	4670 nM	COc1cccc(-c2csc(-c3csc(Nc4ccc(N5CCOCC5)cc4)n3)n2)c1	11.7	174	–
–	8.67 nM	46.6 nM	> 10000 nM	Clc1ccccc1-c1csc(-c2csc(Nc3ccc(N4CCOCC4)cc3)n2)n1	5.37	–	inhibition (A549 [4]): Dose-Dependent Effect
